Read-outs that look alike come from different tables or passages of the source.
Experiments:
DabiOBP14 = type: binding, Dioryctria abietella; conditions: for Ki: competitive displacement of 1-NPN, three replicates, mean ± SE, read-out: OBP14 Ki (dissociation constant)
Description: (§1) In the binding assays, we selected 100 compounds derived from host/non-host plants and man-made insecticides widely used for the control of lepidopteran pests, representing 88 general odorants (21 esters, 21 alcohols, 14 aldehydes, 13 alkenes, seven ketones, 11 alkanes and one acid) and 12 insecticides. These compounds and N-phenyl-1-naphthylamine (1-NPN) were purchased from Aladdin and Sigma-Aldrich, with the highest available purity. They were first diluted into 100 mM, using methanol (HPLC purity grade, ≥99.9%) as a stock solution. The concentrations of the work solution for each ligand and 1-NPN were set at 1 mM.
In order to measure the binding properties of the DabiOBPs to the 100 ligands, competitive binding assays were performed on a RF5301PC fluorescence spectrophotometer (Shimadzu, Japan). The concentrations of DabiOBPs and the fluorescent probe 1-NPN were set at 2 μM. The binding of DabiOBPs to 1-NPN in 20 mM Tris-HCl buffer (pH 7.4) was measured by adding final concentrations of 2–16 μM 1-NPN. Accordingly, binding constants (K1-NPN) of the DabiOBPs and 1-NPN were calculated using GraphPad Prism 7 (GraphPad Software Inc., San Diego, CA). The binding of the DabiOBPs to various ligands was conducted by adding different concentrations of ligands (2, 4, 6, 8, 12, 16 and 20 μM) into the DabiOBP5/1-NPN (each 2 μM) or DabiOBP14/1-NPN (each 2 μM) mixtures. For the ligands replacing over a half of 1-NPN fluorescence (50%) at 20 μM, three replicates were performed. The excitation wavelength was set at 337 nm and the emission peaks were recorded at around 400 nm. The dissociation constants (Ki) of the tested ligands to DabiOBPs were computed, using the equation: Ki = [IC50]/(1 + [1-NPN]/K1-NPN), where [1-NPN] was the free concentration of 1-NPN and IC50 was the concentration of ligands replacing 50% of 1-NPN fluorescence.

DabiOBP5 = molecular target: T1, DabiOBP5 (Dioryctria abietella, UniProt A0A8E6HS34); assay: Competitive fluorescence binding assay with 1-NPN probe, recombinant DabiOBP5; conditions: for inhibition at 20 µM / OBP5 F.D. (%) fluorescence displacement percent: ligand at 20 μM, DabiOBP5/1-NPN each 2 μM, Tris-HCl pH 7.4, NB = no binding; for inhibition at 20 µM: read-out: OBP5 F.D. (%) fluorescence displacement percent; for Ki: competitive displacement of 1-NPN, three replicates, mean ± SE, read-out: OBP5 Ki (dissociation constant)
T1 sequence (A0A8E6HS34 19-139): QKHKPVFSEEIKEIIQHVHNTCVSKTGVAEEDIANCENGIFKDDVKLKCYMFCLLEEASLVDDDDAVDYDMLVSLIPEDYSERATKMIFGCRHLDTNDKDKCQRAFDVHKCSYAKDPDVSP
From the text: as §1, with “They were first diluted into 100 mM, using methanol (HPLC purity grade, ≥99.9%) as a stock solution.” left out
In order to measure the binding properties of the DabiOBPs to the 100 ligands, competitive binding assays were performed on a RF5301PC fluorescence spectrophotometer (Shimadzu, Japan). The concentrations of DabiOBPs and the fluorescent probe 1-NPN were set at 2 μM. […] Accordingly, binding constants (K1-NPN) of the DabiOBPs and 1-NPN were calculated using GraphPad Prism 7 (GraphPad Software Inc., San Diego, CA). […] For the ligands replacing over a half of 1-NPN fluorescence (50%) at 20 μM, three replicates were performed. The excitation wavelength was set at 337 nm and the emission peaks were recorded at around 400 nm.

[1] = ligand at 20 μM, DabiOBP14/1-NPN each 2 μM, Tris-HCl pH 7.4, NB = no binding

Compound | OBP14 F.D. (%) fluorescence displacement percent (DabiOBP14; [1]) [%] | inhibition at 20 µM (DabiOBP5) [%] | OBP5 F.D. (%) fluorescence displacement percent (DabiOBP5) [%] | also measured
COc1cc(C=O)cc(OC)c1O [Syringaldehyde] | 34.32 | 38.5 | – | –
CCCCCCCCCCCCCC [Tetradecane] | 27.13 | 25 | – | –
CCCCCCCCCCCCCCCCCCCCCCC [Tricosane] | 27.90 | 32.8 | – | –
CCCCCCCCCCC=O [Undecanal] | 35.28 | 27.8 | – | –
CCCCCCCCCCC [Undecane] | 6.47 | 4.42 | – | –
CCC/C=C\C=O [Z2-Hexenal] | 33.09 | – | 39.42 | –
CC/C=C\CCO [Z3-Hexen-1-ol] | 24.52 | – | 28.57 | –
CC/C=C\CCOC(C)=O [Z3-Hexenyl acetate] | 31.25 | – | 27.72 | –
CC/C=C\CCOC(=O)CCC [Z3-Hexenyl butyrate] | – | – | 20.80 | OBP14 F.D. (%) fluorescence displacement percent (DabiOBP14; pH 7.4): 26.39%
CC1=CC[C@H](C(C)C)C=C1 [α-Phellandrene] | 36.07 | 37.4 | – | –
CC1=CCC2CC1C2(C)C (stereo not drawn) [α-Pinene] | 29.24 | 25.1 | – | –
CC1=CC=C(C(C)C)CC1 [α-Terpinene] | 27.93 | 35.1 | – | –
CC1=CC[C@@H](C(C)(C)O)CC1 [α-Terpineol] | 30.28 | 33.9 | – | –
CC1=C(C=O)C(C)(C)CCC1 [β-Cyclocitral] | 32.77 | – | 32.90 | –
CC(=O)/C=C/C1=C(C)CCCC1(C)C [β-Ionone] | 62.86 | 59.5 | – | Ki (DabiOBP14; listed as β-ionone): < 13 µM; Ki (DabiOBP14): 8.39 ± 1.04 µM; Ki (DabiOBP5; listed as β-ionone): < 13 µM; Ki (DabiOBP5): 9.11 ± 1.03 µM
CC1=CCC(C(C)C)=CC1 [γ-Terpinene] | 24.46 | 28.2 | – | –
Abamectin | 4.33 | – | 24.16 | –
Farnesene | 17.77 | – | 40.68 | –

— paper PMC9781003, “Two Antenna-Enriched Odorant Binding Proteins in Dioryctria abietella Tuned to General Odorants and Insecticides” (Insects, 2022)
